We go through 3 compounds from paper PMC9617636 (Antiviral Research, 2022).

Where two headings read alike, the source gives them in different places.

Series [1] is described as follows: in vitro. The settings on record: African green monkey.
For series [2], the system named is HCoV-229e. In words: microbe, parasite or virus in culture. The class given is cell-based. Conditions: Human coronavirus 229E.
In series [3] the test system is SARS-CoV-2 nucleocapsid. The class given is cell-based.
Series [4] relates to −1 PRF signal of SARS-CoV-2. The class given is cell-based.
Series [5] has as its system SARS-CoV-2. The class given is cell-based.
Series [6] deals with A549 cells. The class given is cell-based. The settings on record: 600 μM.
The subject of series [7] is SARS-CoV-2 viral RNA. It is filed as cell-based.
Series [8] in a line: in vitro. The settings on record: human.
Series [9] has as its system B.1.1.7 SARS-CoV-2. The series can be described thus: Antiviral assay in Calu3 cells. The class given is cell-based.
The nature of series [10]: in vitro. Conditions: human. This is another data set of the same source.
Series [11] relates to Mucilair tissues. It is filed as cell-based, human. Conditions: MTS assay at 96hpi, 30 μg/tissue. In general terms: Tetrazolium assays rely on reduction of a dye to a coloured formazan, in cell work by metabolically active cells.
In series [12] the test system is SARS-CoV-2 GFP. It is filed as cell-based.
The subject of series [13] is SARS-CoV-2. In words: Antiviral plaque assay in Vero-E6 cells. The class given is cell-based.
Series [14] can be described thus: in vitro. Conditions: dog.
The test system of series [15] is Influenza A virus (H1N1). In words: Antiviral activity against Influenza A virus. It is filed as cell-based, Influenza virus A/Netherlands/602/2009.
Series [16] concerns Calu3 cells.
In series [17] the test system is Vero-E6 cells. Conditions: listed as of SARS-CoV-2 B.1.1.7 (Alpha).
Where [18] appears, read: CC50, row of SARS-CoV-2 B.1.1.7 (Alpha).
The mark [19] stands for this setting: Severe acute respiratory syndrome coronavirus 2, Calu-3, read-out: EC50 (95% CI).
Where [20] appears, read: Severe acute respiratory syndrome coronavirus 2, Vero C1008, read-out: EC50 (95% CI).
The mark [21] stands for this setting: Severe acute respiratory syndrome coronavirus 2, Vero C1008, read-out: EC90 (95% CI), SARS-CoV-2 B.1.1.7 (Alpha), Vero-E6.

Turning to `CN[C@@H]1[C@@H](O)[C@@H](O[C@@H]2[C@@H](O)[C@H](O[C@H]3O[C@H]([C@@H](C)O)[C@@H](O)[C@H](O)[C@H]3N)[C@@H](N)C[C@H]2N)OC[C@]1(C)O` [Geneticin], the CC50 is 3950 µM in series [1] (setting [18]); 3950 µM in series [1] (CC50, row of SARS-CoV-2 B.1.351 (Beta)); 3950 µM in series [1] (CC50, row of SARS-CoV-2 B.1.617.2 (Delta)); 934 µM in series [1] (CC50, row of SARS-CoV-2 BA.1 (Omicron)); over 600 µM in [8]; 684 µM in [10]. This compound also had a CC50 in series [14] of 5840 µM. Further, the EC50 was found to be 7.21 µM in series [2] (Huh-7, read-out: EC50 (95% CI)); 164 µM in series [9] (setting [19]); 47.2 µM in series [13] (setting [20]); 31.6 µM in series [13] (Severe acute respiratory syndrome coronavirus 2, Vero C1008, read-out: EC50 (95% CI), SARS-CoV-2 B.1.160, Vero-E6); 102 µM in series [13] (Severe acute respiratory syndrome coronavirus 2, Vero C1008, read-out: EC50 (95% CI), SARS-CoV-2 B.1.177, Vero-E6); 42.4 µM in [13] (Severe acute respiratory syndrome coronavirus 2, Vero C1008, read-out: EC50 (95% CI), SARS-CoV-2 B.1.258, Vero-E6). Besides, the EC50 was 32.8 µM in series [13] (Severe acute respiratory syndrome coronavirus 2, Vero C1008, read-out: EC50 (95% CI), SARS-CoV-2 B.1.617.2 (Delta), Vero-E6); 25.7 µM in series [13] (Severe acute respiratory syndrome coronavirus 2, Vero C1008, read-out: EC50 (95% CI), SARS-CoV-2 BA.1 (Omicron), Vero-E6); over 600 µM in [15] (read-out: EC50 (95% CI)). The EC90 in series [2] (Huh-7, read-out: EC90 (95% CI)) was 23.9 µM; in series [13] (setting [21]) it was 245 µM; in [13] (Severe acute respiratory syndrome coronavirus 2, Vero C1008, read-out: EC90 (95% CI), SARS-CoV-2 B.1.160, Vero-E6), 150 µM; in series [13] (Severe acute respiratory syndrome coronavirus 2, Vero C1008, read-out: EC90 (95% CI), SARS-CoV-2 B.1.177, Vero-E6), 407 µM; in [13] (Severe acute respiratory syndrome coronavirus 2, Vero C1008, read-out: EC90 (95% CI), SARS-CoV-2 B.1.258, Vero-E6) it was 163 µM; in series [13] (Severe acute respiratory syndrome coronavirus 2, Vero C1008, read-out: EC90 (95% CI), SARS-CoV-2 B.1.351 (Beta), Vero-E6), 542 µM. Moreover, the EC90 in series [13] (Severe acute respiratory syndrome coronavirus 2, Vero C1008, read-out: EC90 (95% CI), SARS-CoV-2 B.1.617.2 (Delta), Vero-E6) was determined as 201 µM; in [13] (Severe acute respiratory syndrome coronavirus 2, Vero C1008, read-out: EC90 (95% CI), SARS-CoV-2 BA.1 (Omicron), Vero-E6), 155 µM. The “viral protein production (nucleocapsid over alpha tubulin)” value in series [3] was “decrease in viral protein production”. Also, the “−1 PRF efficiency” value in series [4] is listed as “reduction in the −1 PRF efficiency”. Also, the “protection from viral infection (apical viral RNA and plaque titre)” value in [5] was “significant protection from viral infections”. Besides, the “protein synthesis in the cell” value in [6] is listed as “not impaired”. Also, the “viral RNA replication” value in [7] is on record as “inhibition of viral RNA replication”. Moreover, the “viability of the tissues” value in [11] was “without a decrease in viability”. In addition, the “GFP intensity in the infected cells” value in series [12] is “significantly reduced”. Besides, in series [12], the “number of infected (GFP positive) cells” value was “marked reduction in the number of infected cells”. In addition, in series [15] (unrelated virus), the “antiviral activity against Influenza A virus (H1N1)” value is listed as “lack of activity”.

For Sotrovimab, the CC50 in [16] and in [17] was over 0.68 µM in each case. Besides, the results for the EC50 in series [9] (read-out: EC50 (95% CI)) and in [13] (read-out: EC50 (95% CI)) were 0.0041 µM and 0.00013 µM, respectively. In addition, in series [13] (read-out: EC90 (95% CI), SARS-CoV-2 B.1.1.7 (Alpha), Vero-E6), the EC90 worked out at 0.0042 µM.

`CCNCC1CCN(c2c(F)cc3c(=O)c(C(=O)O)cn(CC)c3c2F)C1` (stereo not shown) [Merafloxacin]: the CC50 in [1] (setting [18]) and in series [8] was over 100 µM throughout. In addition, in series [3], the “viral protein production (nucleocapsid over alpha tubulin)” value is on record as “decrease in viral protein production”. Moreover, the “−1 PRF efficiency” value in series [4] is listed as “reduction in the −1 PRF efficiency”. In addition, the “viral RNA replication” value in [7] is “inhibition of viral RNA replication”. In addition, the EC50 came out at 21.8 µM in series [9] (setting [19]) and 23.7 µM in [13] (setting [20]). Besides, the EC90 in series [13] (setting [21]) came to 116 µM.
